Experimental data as given in patent US9392792B1, “Topical combination of fipronil, permethrin and pyriproxyfen” (priority 2014, dated 2016).

Assay: Crystallization test on glass slides at ambient temperature
Type: physicochemical
Details: comparison of compositions R1 and C2
Description: Number of glass slides per composition: 5 Protocol: • place the glass slides on a dark-coloured support; • deposit approximately 300 μl of the test composition on each glass slide, while spreading it on the central part of the glass slide (so as to avoid overspill); • leave the glass slide for 24 h in an environment at ambient temperature (approximately 20° C.). The following observations will be carried out: • the visual appearance (to the naked eye) of the compositions is observed after deposition thereof on a glass slide and reported in the observation table; • the visual appearance (to the naked eye) of the compositions is observed after 24 h at ambient temperature and is reported in the observation table while pointing out the possible presence and, where appropriate, the number of crystals present on the whole of the plate; • next, the plates are observed under polarized light and any crystals present are counted on the whole of the plate; an estimation of the size of the crystals is also carried out; • finally, the presence and the count of the crystals possibly present on each of the plates is reported in the observation table. […]

CC(COc1ccc(Oc2ccccc2)cc1)Oc1ccccn1 (stereo not shown) [pyriproxyfen, Pyriproxyfen]
effect of pyriproxyfen on crystallization of fipronil in the presence of permethrin at high concentration: substantially reduces the crystallization
